From ChEMBL document CHEMBL1151839, “Phosphorothioate analogs of m7GTP are enzymatically stable inhibitors of cap-dependent translation” (Bioorg Med Chem Lett, 2009) come the findings set out here.

Data set [1] concerns the target Eukaryotic translation initiation factor 4E (Mus musculus) (UniProt P63073).
Description: Binding affinity to mouse eukaryotic initiation factor 4E expressed in Escherichia coli BL21(DE3) by fluorescence quenching titration method
The target in data set [2] is T1, Eukaryotic translation initiation factor 4E (Oryctolagus cuniculus, UniProt P29338). Description: Inhibition of eukaryotic initiation factor 4E in micrococcal nuclease-pretreated rabbit reticulocyte lysate assessed as inhibition of m7,3'-O-GpppG-capped 5'UTRbetaglob-LUC mRNA translation by luciferase-based luminometry.
T1 sequence (P29338 whole entry): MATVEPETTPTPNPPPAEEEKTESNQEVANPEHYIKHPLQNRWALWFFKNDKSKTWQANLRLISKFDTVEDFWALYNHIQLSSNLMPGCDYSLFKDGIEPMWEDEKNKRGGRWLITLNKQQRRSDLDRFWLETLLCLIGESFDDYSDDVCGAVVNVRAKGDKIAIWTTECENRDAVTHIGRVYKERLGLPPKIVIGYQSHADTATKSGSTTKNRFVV
The target of data set [3] is T1, Eukaryotic translation initiation factor 4E. Description: Inhibition of eukaryotic initiation factor 4E in micrococcal nuclease-pretreated rabbit reticulocyte lysate assessed as inhibition of m7,3'-O-GpppG-capped 5'UTRbetaglob-LUC mRNA translation treated 60 mins before mRNA addition by luciferase-based luminometry.
Data set [4] can be described thus: Stability in presence of human DcpS assessed as complete degradation at 40 uM by HPLC-based assay. The format is ADME.
Data set [5] deals with T1, Eukaryotic translation initiation factor 4E. Description: Inhibition of eukaryotic initiation factor 4E in micrococcal nuclease-pretreated rabbit reticulocyte lysate assessed as inhibition of rabbit beta-[…] mRNA translation by [3H]leucine incorporation assay.

Chain of Eukaryotic translation initiation factor 4E (Mus musculus) (P63073 whole entry): as the sequence (P29338 whole entry) above, with P12T counted along it

In general, IC50 refers to the point on the concentration scale where inhibition reaches its midpoint. For the compound `C[n+]1cn([C@@H]2O[C@H](CO[P@](=O)(S)OP(=O)([O-])OP(=O)(O)O)[C@@H](O)[C@H]2O)c2nc(N)nc(O)c21`, in data set [1], the Ka was 371 µM⁻¹. The IC50 in data set [2] and in data set [3] was 0.56 µM in each case. The Stability entry in data set [4] was “Stable”.
As to `C[n+]1cn([C@@H]2O[C@H](COP(=O)(O)OP(=O)([O-])OP(=O)(O)OC[C@H]3O[C@@H](n4cnc5c(=O)[nH]c(N)nc54)[C@H](O)[C@@H]3O)[C@@H](O)[C@H]2O)c2nc(N)nc(O)c21`, the Ka in data set [1] turned out to be 9.4 µM⁻¹.
For the compound `C[n+]1cn([C@@H]2O[C@H](CO[P@](=O)(S)OP(=O)(O)OP(=O)(O)OC[C@H]3O[C@@H](n4cnc5c(=O)[nH]c(N)nc54)[C@H](O)[C@@H]3O)[C@@H](O)[C@H]2O)c2nc(N)[n-]c(=O)c21`, the IC50 in data set [2] worked out at 1.1 µM; in data set [3] it was 1.2 µM; in data set [5] it was 4.1 µM. The Stability result in data set [4] is “Stable”.
As to `C[n+]1cn([C@@H]2O[C@H](CO[P@@](=O)(S)OP(=O)(O)OP(=O)([O-])O)[C@@H](O)[C@H]2O)c2c1C(O)NC(N)=N2` (stereo not given in full), the Ka in data set [1] was 190 µM⁻¹.
As for `C[n+]1cn([C@@H]2O[C@H](CO[P@@](=O)(S)OP(=O)([O-])OP(=O)(O)OC[C@H]3O[C@@H](n4cnc5c(=O)[nH]c(N)nc54)[C@H](O)[C@@H]3O)[C@@H](O)[C@H]2O)c2nc(N)nc(O)c21`, the Ka in data set [1] stood at 10 µM⁻¹. For the same compound, the values for the IC50 in data set [2], in data set [3] and in data set [5] were 3.8 µM, 2.1 µM and 12.1 µM, respectively. In addition, the Stability result in data set [4] is given as “Stable”.
Regarding `C[n+]1cn([C@@H]2O[C@H](COP(=O)([O-])OP(=O)(O)OP(=O)(O)O)[C@@H](O)[C@H]2O)c2nc(N)[nH]c(=O)c21`, the Stability result in data set [4] is “Unstable”.
Regarding `C[n+]1cn([C@@H]2O[C@H](COP(=O)(O)OP(=O)([O-])OP(=O)(O)OC[C@H]3O[C@@H](n4cnc5c(=O)[nH]c(N)nc54)[C@H](O)[C@@H]3O)[C@@H](O)[C@H]2O)c2nc(N)[nH]c(=O)c21`, the IC50 was 8.3 µM in data set [2], less than 20 µM in data set [3] and 17.1 µM in data set [5]. In addition, the Stability entry in data set [4] is “Unstable”.
